{"source": "patent US20240358693A1", "about": "“METHODS OF TREATING PAIN” (Aisa Pharma, Inc., priority 2023, published 2024)", "system": "participants with SSc-RP", "experiment": "Scleroderma Health Assessment Questionnaire (SHAQ): disability indices and visual analog scales", "assay_type": "in vivo, human", "conditions": "Day 12", "outline": "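Participants with SSc-RP completed the SHAQ at screening and each in-clinic visit. Standard and alternative disability indices (eight categories, 0–3; standard adjusts for aids/assistance) plus Raynaud's VAS on interference over the past 7 days. Reported as absolute change from baseline to end of each dosing period.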", "key": {"[1]": {"conditions": "Modified ITT, Part A, dose Cilnidipine 20 mg, or 20 mg + Tadalafil 5 mg"}, "[2]": {"conditions": "Pooled Cilnidipine 10 mg and Cilnidipine 10 mg + Tadalafil 5 mg (N = 9), PP Population Part A"}, "[3]": {"conditions": "Pooled Cilnidipine 10 mg and Cilnidipine 10 mg + Tadalafil 5 mg (N = 9), PP Population Part A, Subject 01-110 score excluded"}, "[4]": {"conditions": "Pooled Cilnidipine 20 mg and Cilnidipine 20 mg + Tadalafil 5 mg (N = 8), PP Population Part A"}}}
{"smiles": "COCCOC(=O)C1=C(C)NC(C)=C(C(=O)OC/C=C/c2ccccc2)C1c1cccc([N+](=O)[O-])c1", "note": "(centres unmarked) [Cilnidipine, cilnidipine]", "values": [{"measurement": "SHAQ Finger Ulcers, Percent Change from Baseline, Median", "setting": "[1]", "result": 35.29, "unit": "%"}, {"measurement": "SHAQ Standard Disability Index, Change from Baseline, Mean", "setting": "[1]", "result": "−0.125"}, {"measurement": "SHAQ Standard Disability Index, Change from Baseline, Median", "setting": "[1]", "result": "−0.125"}, {"measurement": "SHAQ Standard Disability Index, Percent Change from Baseline, Mean", "setting": "[1]", "result": "−50.00", "unit": "%"}, {"measurement": "SHAQ Standard Disability Index, Percent Change from Baseline, Median", "setting": "[1]", "result": "−50.00", "unit": "%"}, {"measurement": "SHAQ Visual Analog Scale-Breathing Problems, Change from Baseline, Mean", "setting": "[1]", "result": "−0.833"}, {"measurement": "SHAQ Visual Analog Scale-Breathing Problems, Change from Baseline, Median", "setting": "[1]", "result": "−0.800"}, {"measurement": "SHAQ Visual Analog Scale-Breathing Problems, Percent Change from Baseline, Mean", "setting": "[1]", "result": "−5.56", "unit": "%"}, {"measurement": "SHAQ Visual Analog Scale-Breathing Problems, Percent Change from Baseline, Median", "setting": "[1]", "result": "−66.67", "unit": "%"}, {"measurement": "SHAQ Visual Analog Scale-Intestinal Problems, Change from Baseline, Mean", "setting": "[1]", "result": 0.300}, {"measurement": "SHAQ Visual Analog Scale-Intestinal Problems, Change from Baseline, Median", "setting": "[1]", "result": 0.300}, {"measurement": "SHAQ Visual Analog Scale-Intestinal Problems, Percent Change from Baseline, Mean", "setting": "[1]", "result": 35.00, "unit": "%"}, {"measurement": "SHAQ Visual Analog Scale-Intestinal Problems, Percent Change from Baseline, Median", "setting": "[1]", "result": 35.00, "unit": "%"}, {"measurement": "SHAQ Visual Analog Scale-Pain, Change from Baseline, Mean", "setting": "[1]", "result": "−1.100"}, {"measurement": "SHAQ Visual Analog Scale-Pain, Change from Baseline, Median", "setting": "[1]", "result": "−0.800"}, {"measurement": "SHAQ Visual Analog Scale-Pain, Percent Change from Baseline, Mean", "setting": "[1]", "result": "−52.56", "unit": "%"}, {"measurement": "SHAQ Visual Analog Scale-Pain, Percent Change from Baseline, Median", "setting": "[1]", "result": "−53.33", "unit": "%"}, {"measurement": "SHAQ Visual Analog Scale-Raynaud's, Change from Baseline, Mean", "setting": "[1]", "result": "−1.267"}, {"measurement": "SHAQ Visual Analog Scale-Raynaud's, Change from Baseline, Median", "setting": "[1]", "result": "−1.100"}, {"measurement": "SHAQ Visual Analog Scale-Raynaud's, Percent Change from Baseline, Mean", "setting": "[1]", "result": "−48.63", "unit": "%"}, {"measurement": "SHAQ Visual Analog Scale-Raynaud's, Percent Change from Baseline, Median", "setting": "[1]", "result": "−44.00", "unit": "%"}, {"measurement": "SHAQ Visual Analogue Scale - Finger Ulcers, Change from Baseline, Mean", "setting": "[2]", "result": "−0.267"}, {"measurement": "SHAQ Visual Analogue Scale - Finger Ulcers, Change from Baseline, Median", "setting": "[2]", "result": "−0.100"}, {"measurement": "SHAQ Visual Analogue Scale - Finger Ulcers, Percent Change from Baseline, Mean", "setting": "[2]", "result": "−46.06", "unit": "%"}, {"measurement": "SHAQ Visual Analogue Scale - Finger Ulcers, Percent Change from Baseline, Median", "setting": "[2]", "result": "−31.94", "unit": "%"}, {"measurement": "SHAQ Visual Analogue Scale - Intestinal Problems, Change from Baseline, Mean", "setting": "[2]", "result": "−1.228"}, {"measurement": "SHAQ Visual Analogue Scale - Intestinal Problems, Change from Baseline, Median", "setting": "[2]", "result": "−0.250"}, {"measurement": "SHAQ Visual Analogue Scale - Intestinal Problems, Percent Change from Baseline, Mean", "setting": "[2]", "result": "−27.93", "unit": "%"}, {"measurement": "SHAQ Visual Analogue Scale - Intestinal Problems, Percent Change from Baseline, Median", "setting": "[2]", "result": "−54.13", "unit": "%"}, {"measurement": "SHAQ Visual Analogue Scale - Overall Disease Severity, Change from Baseline, Mean", "setting": "[2]", "result": "−0.606"}, {"measurement": "SHAQ Visual Analogue Scale - Overall Disease Severity, Change from Baseline, Median", "setting": "[2]", "result": "−0.700"}, {"measurement": "SHAQ Visual Analogue Scale - Overall Disease Severity, Percent Change from Baseline, Mean", "setting": "[2]", "result": "−24.68", "unit": "%"}, {"measurement": "SHAQ Visual Analogue Scale - Overall Disease Severity, Percent Change from Baseline, Median", "setting": "[2]", "result": "−30.93", "unit": "%"}, {"measurement": "SHAQ Visual Analogue Scale - Pain, Change from Baseline, Mean", "setting": "[2]", "result": "−0.633"}, {"measurement": "SHAQ Visual Analogue Scale - Pain, Change from Baseline, Median", "setting": "[2]", "result": "−0.700"}, {"measurement": "SHAQ Visual Analogue Scale - Pain, Percent Change from Baseline, Mean", "setting": "[2]", "result": "−20.07", "unit": "%"}, {"measurement": "SHAQ Visual Analogue Scale - Pain, Percent Change from Baseline, Median", "setting": "[2]", "result": "−21.87", "unit": "%"}, {"measurement": "SHAQ Visual Analogue Scale - Raynaud's, Change from Baseline, Mean", "setting": "[2]", "result": "−0.414"}, {"measurement": "SHAQ Visual Analogue Scale - Raynaud's, Change from Baseline, Median", "setting": "[2]", "result": "−0.100"}, {"measurement": "SHAQ Visual Analogue Scale - Raynaud's, Percent Change from Baseline, Mean", "setting": "[2]", "result": "−9.97", "unit": "%"}, {"measurement": "SHAQ Visual Analogue Scale - Raynaud's, Percent Change from Baseline, Median", "setting": "[2]", "result": "−4.39", "unit": "%"}, {"measurement": "SHAQ Visual Analogue Scale - Breathing Problems, Change from Baseline, Mean", "setting": "[3]", "result": "−0.175"}, {"measurement": "SHAQ Visual Analogue Scale - Breathing Problems, Change from Baseline, Median", "setting": "[3]", "result": 0.000}, {"measurement": "SHAQ Visual Analogue Scale - Breathing Problems, Percent Change from Baseline, Mean", "setting": "[3]", "result": "−26.05", "unit": "%"}, {"measurement": "SHAQ Visual Analogue Scale - Breathing Problems, Percent Change from Baseline, Median", "setting": "[3]", "result": "−21.33", "unit": "%"}, {"measurement": "SHAQ Visual Analogue Scale - Breathing Problems, Change from Baseline, Mean", "setting": "[4]", "result": 0.225}, {"measurement": "SHAQ Visual Analogue Scale - Breathing Problems, Change from Baseline, Median", "setting": "[4]", "result": 0.150}, {"measurement": "SHAQ Visual Analogue Scale - Breathing Problems, Percent Change from Baseline, Mean", "setting": "[4]", "result": 93.65, "unit": "%"}, {"measurement": "SHAQ Visual Analogue Scale - Breathing Problems, Percent Change from Baseline, Median", "setting": "[4]", "result": 31.58, "unit": "%"}, {"measurement": "SHAQ Visual Analogue Scale - Finger Ulcers, Change from Baseline, Mean", "setting": "[4]", "result": "−0.950"}, {"measurement": "SHAQ Visual Analogue Scale - Finger Ulcers, Change from Baseline, Median", "setting": "[4]", "result": "−0.050"}, {"measurement": "SHAQ Visual Analogue Scale - Finger Ulcers, Percent Change from Baseline, Mean", "setting": "[4]", "result": "−15.69", "unit": "%"}, {"measurement": "SHAQ Visual Analogue Scale - Finger Ulcers, Percent Change from Baseline, Median", "setting": "[4]", "result": "−48.04", "unit": "%"}, {"measurement": "SHAQ Visual Analogue Scale - Intestinal Problems, Change from Baseline, Mean", "setting": "[4]", "result": 0.200}, {"measurement": "SHAQ Visual Analogue Scale - Intestinal Problems, Change from Baseline, Median", "setting": "[4]", "result": 0.000}, {"measurement": "SHAQ Visual Analogue Scale - Intestinal Problems, Percent Change from Baseline, Mean", "setting": "[4]", "result": "−6.27", "unit": "%"}, {"measurement": "SHAQ Visual Analogue Scale - Intestinal Problems, Percent Change from Baseline, Median", "setting": "[4]", "result": "−29.44", "unit": "%"}, {"measurement": "SHAQ Visual Analogue Scale - Overall Disease Severity, Change from Baseline, Mean", "setting": "[4]", "result": "−1.425"}, {"measurement": "SHAQ Visual Analogue Scale - Overall Disease Severity, Change from Baseline, Median", "setting": "[4]", "result": "−1.550"}, {"measurement": "SHAQ Visual Analogue Scale - Overall Disease Severity, Percent Change from Baseline, Mean", "setting": "[4]", "result": "−47.98", "unit": "%"}, {"measurement": "SHAQ Visual Analogue Scale - Overall Disease Severity, Percent Change from Baseline, Median", "setting": "[4]", "result": "−48.23", "unit": "%"}, {"measurement": "SHAQ Visual Analogue Scale - Pain, Change from Baseline, Mean", "setting": "[4]", "result": "−0.500"}]}
